Values belong to the compound of their own block, whether it stands above or below them.
Experiments:
Assay type in all cases: physicochemical
[1] = Suspension stirring experiment of crystal form I (stability in different solvents); conditions: for 50° C. suspension (solid form) / Room temperature suspension (solid form): stirred 3 days
Method: (§1) Using X-ray powder diffractometer (Brooke D8 advance or D2 Phase) was used to characterize the solid. • Scanning angle: […]-40 (2θ). • Step size: 0.02° (2θ). • Scan speed: 0.3 sec/step (D8), 0.2 sec/step (D2). • Light tube voltage: 40 KV (D8), 30 KV (D2). • Light tube current: 40 mA (D8), 10 mA (D2). • Rotation: On. • Sample tray: zero background sample tray. TGA
Weigh the sample crystal form I and place it in a sample bottle, and then add a solvent to prepare a suspension. The resulting suspension is stirred at room temperature and 50° C. for 3 days, then filtered and collected the solid, and the solid is characterized.

[2] = Stability test of crystal form I (different temperature, humidity and light)
Method: as §1
The stability of the crystal form I prepared in Examples 1-13 was studied. Before the test, the single impurities of the crystal form I were less than 0.05%, and the total impurities were less than 0.05%.
Place the crystal form I under 60° C., high humidity, and light conditions, and sample at 0 days/5 days/10 days to investigate its content and related substances. The lighting conditions are: total illuminance: ≥1.2×106 Lux·hr, near ultraviolet energy ≥200 w·hr/m2.

[3] = Hygroscopicity test of crystal form I, dynamic moisture adsorption (DVS)
Method: (§2) DVS analysis of solids using IGASORP dynamic water adsorption instrument. • temperature: 25° C. • airflow: 250 mL/min. • Scan loop: 2. • Minimum test time: 30 min. • Longest test time: 2 h. • Waiting for balance: 98%. PLM
The hygroscopicity of the crystal form I prepared in Examples 1-13 was studied, and 10 mg of the crystal form I was taken for a dynamic moisture adsorption (DVS) test.

[4] = Suspension stirring experiment of crystal form II (stability in different solvents); conditions: for Room temperature suspension (solid form) / 50° C. suspension (solid form): stirred 3-4 days
Method: as §1
The resulting suspension is stirred at room temperature and 50° C. for 3-4 days, then filtered and collected the solid. After vacuum drying at room temperature, the solid was characterized.

[5] = Hygroscopicity study of crystal form II, dynamic moisture adsorption (DVS); conditions: for DVS (90% RH): moisture absorption at 90% relative humidity (RH), 25° C.
Method: as §2
The crystalline form II prepared in Example 21 was used to conduct a moisture absorption study, and about 10 mg of crystalline form II was taken for a dynamic moisture adsorption (DVS) test. The conclusions are described in Table 24 below

[6] = Stability test of crystal form II (different temperature and humidity)
[7] = 0 day (before the test), listed as Form I
[8] = 0 day (before the test), listed as crystal form I
[9] = 60° C., high humidity and light conditions on 5 and 10 days
[10] = 0 day (before the test), listed as crystal form II
[11] = 60° C. and high humidity in 5 and 10 days

50° C. suspension (solid form) ([1]; Acetone): Form I
Room temperature suspension (solid form) ([1]; Acetone): Form I
50° C. suspension (solid form) ([1]; Acetonitrile): Form I
Room temperature suspension (solid form) ([1]; Acetonitrile): Form I
50° C. suspension (solid form) ([1]; Acetonitrile:water 1:1 (v:v)): Form I
Room temperature suspension (solid form) ([1]; Acetonitrile:water 1:1 (v:v)): Form I
50° C. suspension (solid form) ([1]; Butanone): Form I
Room temperature suspension (solid form) ([1]; Butanone): Form I
50° C. suspension (solid form) ([1]; Ethanol): Form I
Room temperature suspension (solid form) ([1]; Ethanol): Form I
50° C. suspension (solid form) ([1]; Ethyl acetate): Form I
Room temperature suspension (solid form) ([1]; Ethyl acetate): Form I
50° C. suspension (solid form) ([1]; Isopropanol): Form I
Room temperature suspension (solid form) ([1]; Isopropanol): Form I
50° C. suspension (solid form) ([1]; Isopropyl acetate): Form I
Room temperature suspension (solid form) ([1]; Isopropyl acetate): Form I
50° C. suspension (solid form) ([1]; Methanol): Form I
Room temperature suspension (solid form) ([1]; Methanol): Form I
50° C. suspension (solid form) ([1]; Methyl tert-butyl ether): Form I
Room temperature suspension (solid form) ([1]; Methyl tert-butyl ether): Form I
stability in a variety of solvents (conclusion) ([1]; suspension stirring, room temperature and 50° C.): good stability
XPRD ([2]; 0 day): Form I
content ([2]; 0 day): 101.2%
Single impurity [2, 7]: <0.05%
Total impurities [2, 7]: <0.05%
Single impurity [2, 8]: less than 0.05%
Total impurities [2, 8]: less than 0.05%
content [2, 9]: ~100%
single impurity content [2, 9]: less than 0.05%
total impurity content [2, 9]: less than 0.05%
stability (conclusion) ([2]; 60° C., high humidity and light conditions, 5 and 10 days): good stability
Single impurity ([2]; 5 days-60° C.): <0.05%
Total impurities ([2]; 5 days-60° C.): <0.05%
XPRD ([2]; 5 days-60° C.): Form I
content ([2]; 5 days-60° C.): 100.8%
Single impurity ([2]; 5 days-high humidity): <0.05%
Total impurities ([2]; 5 days-high humidity): <0.05%
XPRD ([2]; 5 days-high humidity): Form I
content ([2]; 5 days-high humidity): 101.4%
Single impurity ([2]; 5 days-light): <0.05%
Total impurities ([2]; 5 days-light): <0.05%
XPRD ([2]; 5 days-light): Form I
content ([2]; 5 days-light): 101.5%
Single impurity ([2]; 10 days-60° C.): <0.05%
Total impurities ([2]; 10 days-60° C.): <0.05%
XPRD ([2]; 10 days-60° C.): Form I
content ([2]; 10 days-60° C.): 100.8%
Single impurity ([2]; 10 days-high humidity): <0.05%
Total impurities ([2]; 10 days-high humidity): <0.05%
XPRD ([2]; 10 days-high humidity): Form I
content ([2]; 10 days-high humidity): 100.9%
Single impurity ([2]; 10 days-light): <0.05%
Total impurities ([2]; 10 days-light): <0.05%
XPRD ([2]; 10 days-light): Form I
content ([2]; 10 days-light): 100.4%
DVS (90% RH) ([3]; 90% RH, 25° C.): 0.12%
DVS XRPD ([3]; XRPD after DVS): Unchanged
hygroscopicity (conclusion) ([3]; during storage): not easy to absorb water
SMILES: Cc1ccc(C(=O)Nc2ccc(CN3CCN(C)CC3)c(C(F)(F)F)c2)cc1C#Cc1cnc2[nH]ncc2c1 [Crystal form I, 3-((1H-pyrazolo[3,4-b]pyridin-5-yl)ethynyl)-4-methyl-N-(4-((4-methylpiperazine-1-yl)methyl)-3-(trifluoromethyl)phenyl) benzamide]

Room temperature suspension (solid form) ([4]; 1,4-dioxane): Crystal Form II
50° C. suspension (solid form) ([4]; Acetone:water 1:2 (v:v)): Crystal Form XIV
50° C. suspension (solid form) ([4]; Acetonitrile): Crystal Form II
Room temperature suspension (solid form) ([4]; Acetonitrile): Crystal Form II
50° C. suspension (solid form) ([4]; Ethyl acetate): Crystal Form II
Room temperature suspension (solid form) ([4]; Ethyl acetate): Crystal Form II
50° C. suspension (solid form) ([4]; Isopropanol): Crystal Form II
Room temperature suspension (solid form) ([4]; Isopropanol): Crystal Form II
Room temperature suspension (solid form) ([4]; Isopropyl acetate): Crystal Form II
Room temperature suspension (solid form) ([4]; Methanol:water 3:1 (v:v)): Crystal Form II
Room temperature suspension (solid form) ([4]; N-heptane): Crystal Form II
50° C. suspension (solid form) ([4]; Tetrahydrofuran): Crystal Form II
Room temperature suspension (solid form) ([4]; Tetrahydrofuran): Crystal Form II
50° C. suspension (solid form) ([4]; ethanol): Crystal Form II
Room temperature suspension (solid form) ([4]; ethanol): Crystal Form II
50° C. suspension (solid form) ([4]; methanol): Crystal Form II
Room temperature suspension (solid form) ([4]; methanol): Crystal Form II
stability at room temperature and 50° C. (conclusion) ([4]; suspension stirring in solvents): good stability
hygroscopicity (conclusion) ([5]; during storage): not easy to absorb water
XRPD before and after DVS ([5]; listed as Crystal Form II): Unchanged
XRPD before and after DVS ([5]; listed as crystal form II): has not changed
DVS (90% RH) ([5]; listed as Crystal Form II): 1.66%
DVS (90% RH) ([5]; listed as crystal form II): 1.66%
XPRD ([6]; 0 day): Crystal Form II
content ([6]; 0 day): 98.7%
Single impurity ([6]; 0 day (before the test)): <0.05%
Total impurities ([6]; 0 day (before the test)): <0.05%
Single impurity [6, 10]: less than 0.05%
Total impurities [6, 10]: less than 0.05%
The content (single impurity) [6, 11]: less than 0.05
content [6, 11]: ≥ 98.5%
total impurity content [6, 11]: less than 0.05
stability (conclusion) ([6]; 60° C. and high humidity, 5 and 10 days): good stability
Single impurity ([6]; 5 days-60° C.): <0.05%
Total impurities ([6]; 5 days-60° C.): <0.05%
XPRD ([6]; 5 days-60° C.): Crystal Form II
content ([6]; 5 days-60° C.): 99.5%
Single impurity ([6]; 5 days-high (high humidity)): <0.05%
Total impurities ([6]; 5 days-high (high humidity)): <0.05%
XPRD ([6]; 5 days-high (high humidity)): Crystal Form II
content ([6]; 5 days-high (high humidity)): 99.4%
Single impurity ([6]; 10 days-60° C.): <0.05%
Total impurities ([6]; 10 days-60° C.): <0.05%
XPRD ([6]; 10 days-60° C.): Crystal Form II
content ([6]; 10 days-60° C.): 99.2%
Single impurity ([6]; 10 days-high (high humidity)): <0.05%
Total impurities ([6]; 10 days-high (high humidity)): <0.05%
XPRD ([6]; 10 days-high (high humidity)): Crystal Form II
content ([6]; 10 days-high (high humidity)): 99.0%
SMILES: Cc1ccc(C(=O)Nc2ccc(CN3CCN(C)CC3)c(C(F)(F)F)c2)cc1C#Cc1cnc2[nH]ncc2c1.O=C(O)/C=C/C(=O)O [Crystal form II, 3-((1H-pyrazolo[3,4-b]pyridin-5-yl)ethynyl)-4-methyl-N-(4-((4-methylpiperazine-1-yl)methyl)-3-(trifluoromethyl)phenyl) benzamide fumarate]

Reference: US12686679B2, “Crystals of alkynyl-containing compound, salt and solvate thereof, preparation method, and applications” (GUANGZHOU HEALTHQUEST PHARMA CO., LTD., priority 2020, dated 2026)
